Source: ChEMBL document CHEMBL5365447, “Pronucleotides of 2',3'-Dideoxy-2',3'-Didehydrothymidine as Potent Anti-HIV Compounds” (J Med Chem, 2023)
pEC50: −log10 of the molar value. Calls of active or inactive are those of the source. The calls are words filed in the database; no cut-off is given here.

Legend:
[1] = tested on: Human immunodeficiency virus 2; assay: Antiviral activity against HIV-2 ROD infected in thymidine kinase-deficient human CEM cells assessed as inhibition of virus-induced cytopathic effect incubated for 4 to 5 days by light microscopic analysis; format: functional, organism-based; conditions: Human immunodeficiency virus 2, ROD, CCRF-CEM
[2] = Cytotoxicity against human CEM cells assessed as reduction in cell viability incubated for 4 to 5 days by light microscopic analysis; format: toxicity, cell-based; conditions: CEM cells (CCRF-CEM), time 4-5 day
[3] = Selectivity index, ratio of CC50 for human CEM cells to EC50 for HIV-2 ROD infected in thymidine kinase-deficient human CEM cells; format: toxicity; conditions: read-out: Ratio CC50/EC50
[4] = Retention time of the compound by HPLC analysis; format: physicochemical
[5] = Chemical stability of the compound in phosphate buffer saline assessed as half life at pH 7.3 by HPLC analysis; format: physicochemical; conditions: phosphate buffered saline
[6] = Prodrug conversion in pH 7.3 phosphate buffer assessed as metabolite formation by measuring half life in presence of pig liver esterase by HPLC analysis; format: ADME; conditions: isolated protein
[7] = Prodrug conversion in human CEM/0 cell extract assessed as metabolite formation by measuring half life by HPLC analysis; format: ADME; conditions: ccrf-cem
[8] = tested on: Human immunodeficiency virus 1; assay: Antiviral activity against HIV-1 HE infected in wild-type human CEM/0 cells assessed as inhibition of virus-induced cytopathic effect incubated for 4 to 5 days by light microscopic analysis; format: functional, organism-based; conditions: Human immunodeficiency virus 1, HE, CCRF-CEM
[9] = tested on: Human immunodeficiency virus 2; assay: Antiviral activity against HIV-2 ROD infected in wild-type human CEM/0 cells assessed as inhibition of virus-induced cytopathic effect incubated for 4 to 5 days by light microscopic analysis; format: functional, organism-based; conditions: Human immunodeficiency virus 2, ROD, CCRF-CEM
[10] = Prodrug conversion in pH 7.3 phosphate buffer assessed as ((2S,5R)-5-(5-methyl-2,4-dioxo-3,4-dihydropyrimidin-1(2H)-yl)-2,5-dihydrofuran-2-yl)methyl tri-hydrogen diphosphate formation by measuring half life in presence of pig liver esterase by HPLC analysis; format: ADME
[11] = Prodrug conversion in human CEM/0 cell extract assessed as ((2S,5R)-5-(5-methyl-2,4-dioxo-3,4-dihydropyrimidin-1(2H)-yl)-2,5-dihydrofuran-2-yl)methyl tri-hydrogen diphosphate formation by HPLC analysis; format: ADME; conditions: ccrf-cem
[12] = target: T1, DNA polymerase alpha catalytic subunit (Homo sapiens) (UniProt P09884); assay: Substrate activity at human DNA polymerase alpha measured after 4 hrs by electrophoresis based primer extension assay
T1 sequence (whole entry): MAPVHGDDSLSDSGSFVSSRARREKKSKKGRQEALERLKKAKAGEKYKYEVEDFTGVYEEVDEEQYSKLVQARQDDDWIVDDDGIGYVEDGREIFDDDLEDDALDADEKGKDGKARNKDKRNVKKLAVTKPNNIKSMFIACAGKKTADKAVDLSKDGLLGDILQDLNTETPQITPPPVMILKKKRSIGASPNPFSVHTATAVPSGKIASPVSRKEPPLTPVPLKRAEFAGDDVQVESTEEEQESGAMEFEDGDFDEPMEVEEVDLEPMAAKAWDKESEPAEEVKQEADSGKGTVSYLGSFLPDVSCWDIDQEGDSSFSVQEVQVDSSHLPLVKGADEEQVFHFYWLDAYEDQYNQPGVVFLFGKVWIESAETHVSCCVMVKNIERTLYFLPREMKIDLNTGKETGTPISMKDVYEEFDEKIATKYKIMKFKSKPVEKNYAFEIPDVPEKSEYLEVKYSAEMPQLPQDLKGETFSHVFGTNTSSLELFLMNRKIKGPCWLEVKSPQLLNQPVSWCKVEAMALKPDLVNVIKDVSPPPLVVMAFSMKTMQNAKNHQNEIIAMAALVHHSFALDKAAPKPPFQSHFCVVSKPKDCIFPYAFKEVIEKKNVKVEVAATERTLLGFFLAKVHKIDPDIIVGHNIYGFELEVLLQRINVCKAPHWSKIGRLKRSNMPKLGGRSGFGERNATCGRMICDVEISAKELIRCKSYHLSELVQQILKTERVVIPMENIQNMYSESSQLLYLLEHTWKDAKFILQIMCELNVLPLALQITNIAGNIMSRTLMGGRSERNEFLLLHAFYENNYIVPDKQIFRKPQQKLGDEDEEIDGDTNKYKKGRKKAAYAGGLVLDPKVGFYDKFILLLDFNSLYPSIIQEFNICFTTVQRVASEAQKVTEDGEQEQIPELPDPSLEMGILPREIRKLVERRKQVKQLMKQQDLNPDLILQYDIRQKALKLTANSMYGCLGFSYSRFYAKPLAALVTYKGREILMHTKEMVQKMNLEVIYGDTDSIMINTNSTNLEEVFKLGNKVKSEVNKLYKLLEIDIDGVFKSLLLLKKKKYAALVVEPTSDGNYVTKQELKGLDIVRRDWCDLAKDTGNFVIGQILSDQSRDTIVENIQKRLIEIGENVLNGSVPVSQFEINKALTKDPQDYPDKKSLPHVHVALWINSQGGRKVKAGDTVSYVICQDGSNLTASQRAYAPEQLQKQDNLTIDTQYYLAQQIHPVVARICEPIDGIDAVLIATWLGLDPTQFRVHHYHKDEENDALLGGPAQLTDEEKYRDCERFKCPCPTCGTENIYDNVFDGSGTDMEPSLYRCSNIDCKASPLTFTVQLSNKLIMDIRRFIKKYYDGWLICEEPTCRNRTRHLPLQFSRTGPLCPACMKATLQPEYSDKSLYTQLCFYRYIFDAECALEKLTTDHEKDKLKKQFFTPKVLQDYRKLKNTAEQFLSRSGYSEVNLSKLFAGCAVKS

[13] = target: DNA polymerase beta (Homo sapiens) (UniProt P06746); assay: Substrate activity at human DNA polymerase beta measured after 4 hrs by electrophoresis based primer extension assay
[14] = target: T2, DNA polymerase subunit gamma-1 (Homo sapiens) (UniProt P54098); assay: Substrate activity at human DNA polymerase gamma measured after 4 hrs by electrophoresis based primer extension assay
T2 sequence (whole entry): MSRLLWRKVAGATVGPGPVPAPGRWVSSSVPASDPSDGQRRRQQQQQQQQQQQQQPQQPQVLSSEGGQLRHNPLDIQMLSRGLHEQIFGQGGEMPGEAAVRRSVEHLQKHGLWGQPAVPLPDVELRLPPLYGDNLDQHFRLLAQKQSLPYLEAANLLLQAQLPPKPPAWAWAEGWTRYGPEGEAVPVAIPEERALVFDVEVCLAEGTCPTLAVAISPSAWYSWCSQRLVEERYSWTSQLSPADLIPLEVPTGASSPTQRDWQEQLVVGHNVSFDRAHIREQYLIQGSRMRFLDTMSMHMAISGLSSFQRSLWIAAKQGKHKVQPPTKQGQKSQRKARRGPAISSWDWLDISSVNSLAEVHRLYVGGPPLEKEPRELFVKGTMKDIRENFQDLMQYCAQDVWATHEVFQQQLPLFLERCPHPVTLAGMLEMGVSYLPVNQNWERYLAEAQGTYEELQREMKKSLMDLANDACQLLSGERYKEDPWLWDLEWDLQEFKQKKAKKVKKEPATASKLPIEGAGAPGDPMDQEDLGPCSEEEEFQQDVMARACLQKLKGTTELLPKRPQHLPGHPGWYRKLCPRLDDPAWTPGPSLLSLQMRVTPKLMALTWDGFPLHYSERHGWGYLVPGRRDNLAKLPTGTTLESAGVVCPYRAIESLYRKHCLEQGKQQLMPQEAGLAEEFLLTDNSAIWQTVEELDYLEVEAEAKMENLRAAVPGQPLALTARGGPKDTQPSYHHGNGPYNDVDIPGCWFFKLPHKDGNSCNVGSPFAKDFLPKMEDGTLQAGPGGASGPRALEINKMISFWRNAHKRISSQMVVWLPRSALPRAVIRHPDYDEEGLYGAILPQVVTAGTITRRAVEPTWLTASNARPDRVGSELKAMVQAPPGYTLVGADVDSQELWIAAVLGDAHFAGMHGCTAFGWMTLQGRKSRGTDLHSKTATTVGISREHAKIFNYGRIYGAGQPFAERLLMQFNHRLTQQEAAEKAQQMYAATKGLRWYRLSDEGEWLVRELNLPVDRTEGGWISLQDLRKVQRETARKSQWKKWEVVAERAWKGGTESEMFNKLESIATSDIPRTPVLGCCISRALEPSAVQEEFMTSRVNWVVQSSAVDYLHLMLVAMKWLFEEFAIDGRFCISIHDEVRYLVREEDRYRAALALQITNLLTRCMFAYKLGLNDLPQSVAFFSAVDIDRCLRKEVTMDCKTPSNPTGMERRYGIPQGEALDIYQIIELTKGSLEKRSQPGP

[15] = tested on: Human immunodeficiency virus; assay: Substrate activity at HIV reverse transcriptase measured after 4 hrs by electrophoresis based primer extension assay

Cc1cn([C@H]2C=C[C@@H](CO)O2)c(=O)[nH]c1=O [STAVUDINE]
pEC50 [1]: < 4.30
CC50 [2]: > 50000 nM
selectivity ratio [3]: > 1

CCCCC(=O)Oc1ccc(COP(=O)(OC)OP(=O)(O)OC[C@@H]2C=C[C@H](n3cc(C)c(=O)[nH]c3=O)O2)cc1.N (stereo not given in full)
Retention_time [4]: 11.3 min
half-life [5]: 3.5 days
Drug metabolism [6]: Metabolite_Notdetected
Drug metabolism [7]: Metabolite_Notdetected
pEC50 [8]: 6.37
pEC50 [9]: 6.39
pEC50 [1]: 5.05
CC50 [2]: > 100000 nM
selectivity ratio [3]: > 11

CCCCOP(=O)(O)OP(=O)(O)OC[C@@H]1C=C[C@H](n2cc(C)c(=O)[nH]c2=O)O1.N.N
Retention_time [4]: 9.4 min
half-life [5]: > 125 days
t1/2 [10]: > 150 h
t1/2 [7]: > 30 h
Drug metabolism [11]: Metabolite_Notdetected
pEC50 [8]: 6.14
pEC50 [9]: 6.38
pEC50 [1]: 4.36
CC50 [2]: > 100000 nM
selectivity ratio [3]: > 2
Activity [12]: inactive
Activity [13]: inactive
Activity [14]: inactive

CCCCCCCCCCCCCCCCCCP(=O)(OCc1ccc(OC(=O)CCCC)cc1)OP(=O)(O)OC[C@@H]1C=C[C@H](n2cc(C)c(=O)[nH]c2=O)O1.N (stereo not given in full)
Retention_time [4]: 20 min
half-life [5]: > 83.3 days
t1/2 [6]: 0.25 h
t1/2 [7]: > 8 h
pEC50 [8]: 7.36
pEC50 [9]: 7.38
pEC50 [1]: 8.70
CC50 [2]: 14600 nM
selectivity ratio [3]: 7290

COP(=O)(O)OP(=O)(O)OC[C@@H]1C=C[C@H](n2cc(C)c(=O)[nH]c2=O)O1.N.N
Retention_time [4]: 8.9 min
half-life [5]: > 125 days
t1/2 [10]: > 150 h
Drug metabolism [7]: Metabolite_Notdetected
Drug metabolism [11]: Metabolite_Notdetected
pEC50 [8]: 6.28
pEC50 [9]: 6.74
pEC50 [1]: 4.39
CC50 [2]: > 100000 nM
selectivity ratio [3]: > 2
Activity [12]: inactive
Activity [13]: inactive
Activity [14]: inactive

CCCCCCCCCCCCOP(=O)(O)OP(=O)(O)OC[C@@H]1C=C[C@H](n2cc(C)c(=O)[nH]c2=O)O1.N.N
Retention_time [4]: 12.6 min
half-life [5]: > 125 days
t1/2 [10]: > 150 h
t1/2 [7]: > 30 h
Drug metabolism [11]: Metabolite_Notdetected
pEC50 [8]: 6.25
pEC50 [9]: 6.72
pEC50 [1]: 4.96
CC50 [2]: > 100000 nM
selectivity ratio [3]: > 9
Activity [12]: inactive
Activity [13]: inactive
Activity [14]: inactive

CCCCCCCCCCCCCCCCCCOP(=O)(O)OP(=O)(O)OC[C@@H]1C=C[C@H](n2cc(C)c(=O)[nH]c2=O)O1.N.N
Retention_time [4]: 15.1 min
half-life [5]: > 125 days
t1/2 [10]: > 150 h
t1/2 [7]: > 13 h
Drug metabolism [11]: Metabolite_Notdetected
pEC50 [8]: 6.48
pEC50 [9]: 7.17
pEC50 [1]: 9.00
CC50 [2]: > 100000 nM
selectivity ratio [3]: > 62500
Activity [15]: inactive
Activity [12]: inactive
Activity [13]: inactive
Activity [14]: inactive

CCCCCCCCCCCCP(=O)(O)OP(=O)(O)OC[C@@H]1C=C[C@H](n2cc(C)c(=O)[nH]c2=O)O1.N.N
Retention_time [4]: 12.3 min
half-life [5]: > 83.3 days
t1/2 [10]: > 150 h
t1/2 [7]: > 30 h
Drug metabolism [11]: Metabolite_Notdetected
pEC50 [8]: 6.06
pEC50 [9]: 6.70
pEC50 [1]: 4.90
CC50 [2]: > 100000 nM
selectivity ratio [3]: > 8

Cc1cn([C@H]2C=C[C@@H](COP(=O)(O)OP(=O)(O)O)O2)c(=O)[nH]c1=O
Activity [15]: Active
